Measured values reported in article PMC10740425, “How Deep Learning in Antiviral Molecular Profiling Identified Anti-SARS-CoV-2 Inhibitors” (Biomedicines, 2023).

Columns and labels:
[1] = Mouse infection model, body weight changes; type: in vivo, BALB/C mice; conditions: infected mice, 5 mg/kg intranasally, four-day observation
SARS-CoV-2 [2] = type: cell-based; conditions: Calu-3 cells, treated 1 h post-infection, up to 10 µM, 72 h
SARS-CoV-2 [3] = conditions: Calu-3 cells, 5 µM, pre-treated 2 h, MOI 0.1, 72 h
Calu-3 cells = conditions: uninfected Calu-3 cells, concentrations up to 10 µM, normalized to DMSO

Structure (SMILES) | weight changes versus control group [1] | viral progeny / inhibitory effect (plaque assay, Western blotting) (SARS-CoV-2 [2]) | antiviral activity (intracellular virus, immunofluorescence staining) (SARS-CoV-2 [3]) | cellular toxicity (Calu-3 cells)
O=P(O)(O)OC[C@H]1O[C@@H](n2cnc3c(S)ncnc32)[C@H](O)[C@@H]1O [thioinosinic acid] | no significant difference in weight changes | notable antiviral efficacy | – | –
Cn1cnc([N+](=O)[O-])c1Sc1ncnc2nc[nH]c12 [azathioprine] | no significant difference in weight changes | significant reduction in viral progeny | antiviral activity comparable to established nucleoside analog inhibitors | low cellular toxicity
CC(C)C(=O)OC[C@H]1O[C@@H](n2ccc(NO)nc2=O)[C@H](O)[C@@H]1O [molnupiravir] | – | moderate inhibitory effects | – | –
